Data taken from PubChem BioAssay AID290 (DTP/NCI, 2004).
Several values for one entry are separate records, joined by “and”; a condition that tells them apart may be missing. Equal entries are not always repeated. Inconclusive results are not listed.

Tested on: mice, P1798 lymphosarcoma sc, survival or tumor weight T/C
Test: NCI In Vivo Anticancer Drug Screen. Data for tumor model P1798 Lymphosarcoma (subcutaneous) in unknown mice
Details: endpoint: mean tumor weight, higher = larger tumour
Experimental: The antitumor activity of compounds was measured in mice bearing transplantable tumors. Survival or tumor size were measured and the results are expressed as the measurement made in the treated group (T) divided by the measurement made in the vehicle treated control group (C). The tumor model used in this assay is P1798 Lymphosarcoma (subcutaneous) in unknown mice

[1] = dose: 37.5 mg/kg/injection, schedule: Q01DX010 (ip), vehicle: carboxymethylcellulose (CMC)
[2] = dose: 75.0 mg/kg/injection, schedule: Q01DX010 (ip), vehicle: carboxymethylcellulose (CMC)
[3] = dose: 50.0 mg/kg/injection, schedule: Q01DX010 (ip), vehicle: carboxymethylcellulose (CMC)
[4] = dose: 5.0 mg/kg/injection, schedule: Q01DX010 (ip), vehicle: saline
[5] = dose: 1.25 mg/kg/injection, schedule: Q01DX010 (ip), vehicle: saline
[6] = dose: 2.5 mg/kg/injection, schedule: Q01DX010 (ip), vehicle: saline
[7] = dose: 25.0 mg/kg/injection, schedule: Q01DX010 (ip), vehicle: carboxymethylcellulose (CMC)

## Nc1ncnc2c1ncn2C1OC(CO)CC1O (centres undefined)
[1]
  T/C: 111 % of control
[2]
  T/C: 85 % of control

## CN(N=O)C(N)=O
dose: 12.5 mg/kg/injection, schedule: Q01DX010 (ip), vehicle: saline
  T/C: 10 % of control
dose: 25.0 mg/kg/injection, schedule: Q01DX010 (ip), vehicle: saline
  T/C: 13 % of control

## S=c1nc[nH]c2nc[nH]c12
dose: 3.12 mg/kg/injection, schedule: Q01DX010 (ip), vehicle: other
  T/C: 103 % of control
dose: 6.25 mg/kg/injection, schedule: Q01DX010 (ip), vehicle: other
  T/C: 83 % of control
dose: 12.5 mg/kg/injection, schedule: Q01DX010 (ip), vehicle: other
  T/C: 74 % of control and 77 % of control and 88 % of control
dose: 18.7 mg/kg/injection, schedule: Q01DX010 (ip), vehicle: other
  T/C: 45 % of control
dose: 34.0 mg/kg/injection, schedule: Q01DX001 (ip), vehicle: carboxymethylcellulose (CMC)
  T/C: 92 % of control

## O=C1CCC(N2C(=O)c3ccccc3C2=O)C(=O)N1 (centres undefined)
dose: 18.75 mg/kg/injection, schedule: Q01DX010 (ip), vehicle: carboxymethylcellulose (CMC)
  T/C: 122 % of control
[1]
  T/C: 68 % of control
[2]
  T/C: 92 % of control
dose: 150.0 mg/kg/injection, schedule: Q01DX010 (ip), vehicle: carboxymethylcellulose (CMC)
  T/C: 83 % of control

## CC(C)(c1ccccc1)c1ccc(O)cc1
[3]
  T/C: 91 % of control
dose: 100.0 mg/kg/injection, schedule: Q01DX010 (ip), vehicle: carboxymethylcellulose (CMC)
  T/C: 109 % of control
dose: 200.0 mg/kg/injection, schedule: Q01DX010 (ip), vehicle: carboxymethylcellulose (CMC)
  T/C: 108 % of control

## CC1(O)CCC2C3CCC4=CC(=O)CCC4C3CCC21C (centres undefined)
dose: 75.0 mg/kg/injection, schedule: Q01DX010 (sc), vehicle: steriod suspending solution
  T/C: 116 % of control
dose: 150.0 mg/kg/injection, schedule: Q01DX010 (sc), vehicle: steriod suspending solution
  T/C: 115 % of control
dose: 300.0 mg/kg/injection, schedule: Q01DX010 (sc), vehicle: steriod suspending solution
  T/C: 109 % of control
dose: 600.0 mg/kg/injection, schedule: Q01DX010 (sc), vehicle: steriod suspending solution
  T/C: 122 % of control

## CN(C)CC(=O)c1ccc(O)c(O)c1
dose: 250.0 mg/kg/injection, schedule: Q01DX010 (ip), vehicle: saline
  T/C: 154 % of control

## Nc1nc(=S)c2[nH]cnc2[nH]1
dose: 0.12 mg/kg/injection, schedule: Q01DX010 (ip), vehicle: carboxymethylcellulose (CMC)
  T/C: 77 % of control
dose: 0.25 mg/kg/injection, schedule: Q01DX010 (ip), vehicle: carboxymethylcellulose (CMC)
  T/C: 64 % of control
dose: 0.5 mg/kg/injection, schedule: Q01DX010 (ip), vehicle: carboxymethylcellulose (CMC)
  T/C: 81 % of control

## c1ccc(COCC[P+](c2ccccc2)(c2ccccc2)c2ccccc2)cc1
[4]
  T/C: 53 % of control
dose: 8.0 mg/kg/injection, schedule: Q01DX010 (ip), vehicle: saline
  T/C: 49 % of control

## NC(=O)c1ccc(N)nc1
dose: 0.63 mg/kg/injection, schedule: Q01DX010 (ip), vehicle: saline
  T/C: 71 % of control
[5]
  T/C: 82 % of control
[6]
  T/C: 52 % of control
[4]
  T/C: 21 % of control

## O=C(O)CCCc1ccc(N(CCCl)CCCl)cc1
dose: 3.12 mg/kg/injection, schedule: Q01DX010 (ip), vehicle: carboxymethylcellulose (CMC)
  T/C: 86 % of control
dose: 6.25 mg/kg/injection, schedule: Q01DX010 (ip), vehicle: carboxymethylcellulose (CMC)
  T/C: 89 % of control
dose: 12.5 mg/kg/injection, schedule: Q01DX010 (ip), vehicle: carboxymethylcellulose (CMC)
  T/C: 104 % of control
[7]
  T/C: 73 % of control

## CN(C)c1ccc(Nc2c3ccccc3nc3ccccc23)cc1
dose: 3.15 mg/kg/injection, schedule: Q01DX010 (ip), vehicle: carboxymethylcellulose (CMC)
  T/C: 84 % of control
dose: 6.3 mg/kg/injection, schedule: Q01DX010 (ip), vehicle: carboxymethylcellulose (CMC)
  T/C: 86 % of control
[7]
  T/C: 36 % of control
[3]
  T/C: 10 % of control

## N=[N+]=CC(=O)OCC(N)C(=O)O (centres undefined)
[5]
  T/C: 98 % of control
[6]
  T/C: 56 % of control
[4]
  T/C: 17 % of control and 24 % of control

## O=C(Nc1ccc(C2=NCCCN2)cc1)c1ccc(NC(=O)c2ccc(C3=NCCCN3)cc2)cc1
dose: 2.0 mg/kg/injection, schedule: Q01DX010 (ip), vehicle: carboxymethylcellulose (CMC)
  T/C: 73 % of control
dose: 4.0 mg/kg/injection, schedule: Q01DX010 (ip), vehicle: carboxymethylcellulose (CMC)
  T/C: 50 % of control
dose: 8.0 mg/kg/injection, schedule: Q01DX010 (ip), vehicle: carboxymethylcellulose (CMC)
  T/C: 15 % of control
